Measured values from article PMC5732813, “Novel piplartine-containing ruthenium complexes: synthesis, cell growth inhibition, apoptosis induction and ROS production on HCT116 cells” (Oncotarget, 2017).
Values joined by “and” are separate entries in the source; they are usually repeats but may differ in a detail not shown here. Identical values can stand only once. Like-named read-outs stand apart in the source and are kept apart here.

Key:
[1] = test system: BAD KO SV40 MEF (BAD gene knockout immortalized mouse embryonic fibroblast); assay: Cytotoxic activity, alamar blue assay, BAD KO SV40 MEF; type: cell-based
Source text: (§1) HCT116 (human colon carcinoma), HepG2 (human hepatocellular carcinoma), HSC-3 (human oral squamous cell carcinoma), SCC-4 (human oral squamous cell carcinoma), SCC-9 (human oral squamous cell carcinoma), HL-60 (human promyelocytic leukemia), K-562 (human chronic myelogenous leukemia), B16-F10 (murine melanoma), MRC-5 (human lung fibroblast), WT SV40 MEF (wild-type immortalized mouse embryonic fibroblast) and BAD KO SV40 MEF (BAD gene knockout immortalized mouse embryonic fibroblast) cell lines were obtained from the American Type Culture Collection (ATCC, Manassas, VA, USA) and cultured in RPMI-1640 medium (Gibco-BRL, Gaithersburg, MD, USA) with 10% fetal bovine serum (Life, Carlsbad, CA, USA), 2 mM L-glutamine (Vetec Química Fina, Duque de Caxias, RJ, Brazil) and 50 μg/mL gentamycin (Life, Carlsbad, CA, USA). Adherent cells were collected by treatment with 0.25% trypsin EDTA solution (Gibco-BRL, Gaithersburg, MD, USA). All cell lines were cultured in flasks at 37°C in 5% CO2 and sub-cultured every 3-4 days to maintain exponential growth.
(§2) Cell viability was quantified using the alamar blue assay, according to Ahmed et al.. Cells were inserted in 96-well plates for all experiments (7 x 10^4 cells/mL for adherent cells or 3 x 10^5 cells/mL for suspended cells in 100 μL of medium). […] Negative controls received the vehicle that was used for diluting the compounds tested.

[2] = test system: MRC-5 (human lung fibroblast); assay: Cytotoxic activity, alamar blue assay, MRC-5 non-cancer cells; type: cell-based; settings: Homo sapiens
Source text: as §1, §2

[3] = test system: HCT116 cells; assay: Internucleosomal DNA fragmentation and cell cycle distribution (DNA content, flow cytometry); type: cell-based, human
Experimental: Cells were harvested in a permeabilization solution containing 0.1% triton X-100 (Sigma Chemical Co. St Louis, MO, USA), 2 μg/mL propidium iodide (Sigma Chemical Co. St Louis, MO, USA), 0.1% sodium citrate and 100 μg/mL RNAse (Sigma Chemical Co. St Louis, MO, USA) and incubated in the dark for 15 min at room temperature.

[4] = test system: SCC-9 (human oral squamous cell carcinoma); assay: Cytotoxic activity, alamar blue assay, SCC-9; type: cell-based; settings: for more potent than metal-free piplartine: SCC9, IC50 72h
Source text: as §1, §2

[5] = test system: PBMC (human peripheral blood mononuclear cells); assay: Cytotoxic activity, alamar blue assay, PBMC non-cancer cells; type: cell-based; settings: Homo sapiens
Experimental: PBMCs were washed and resuspended at a concentration of 3 x 10^5 cells/mL in RPMI 1640 medium with 20% fetal bovine serum, 2 mM glutamine and 50 μg/mL gentamycin at 37°C with 5% CO2. […] The Research Ethics Committee of the Oswaldo Cruz Foundation (Salvador, Bahia, Brazil) approved the experimental protocol (# 031019/2013). All participants signed a written informed consent to participate in the study.
as §2

[6] = test system: calf thymus DNA (ctDNA); assay: DNA intercalation assay (ethidium bromide displacement); type: binding; settings: ctDNA 15 μg/mL, ethidium bromide 1.5 μM; complexes 5, 10 and 20 μM; doxorubicin 10 μM; data not shown
Experimental: DNA intercalation was assessed by examining the ability of the complexes to displace ethidium bromide from ctDNA (Sigma-Aldrich Co., Saint Louis, MO, USA). Sexplicate assays (100 μL) were conducted in 96-well plates and contained 15 μg/mL ctDNA, 1.5 μM ethidium bromide and 5, 10 and 20 μM of each complexes in saline solution. […] Fluorescence was measured using excitation and emission wavelengths of 320 nm and 600 nm, respectively using the spectraMax Microplate Reader (Molecular Devices, Sunnyvale, CA, EUA).

[7] = test system: HCT116 cells; assay: Cellular reactive oxygen species levels (DCF-DA); type: cell-based, human; settings: 1 h, PL 10 μM
Experimental: The levels of ROS were measured according to previously described using DCF-DA (Sigma-Aldrich Co., Saint Louis, MO, USA). In brief, cells were treated with the complexes for 1 and 3 h. Then, the cells were collected, washed with saline and resuspended in FACS tubes with saline containing 5 μM DCF-DA for 30 min.

[8] = test system: HL-60 (human promyelocytic leukemia); assay: Cytotoxic activity, alamar blue assay, HL-60; type: cell-based
Source text: as §1, §2

[9] = test system: HCT116 cells; settings: HCT116, 24 and 48h; PL 10 μM
Experimental: (§3) To investigate the mechanisms involved in cytotoxic action of the complexes, a new set of experiments was performed. In all experiments, 2 mL of a HCT116 cell solution (7 x 10^4 cells/mL) was inserted in 24-well plates and incubated overnight to allow the cells to adhere to the plate surface. […] The negative control was treated with the vehicle (0.1% of a solution containing 70% sorbitol, 25% tween 80 and 5% water) used for diluting the compounds tested. […] Cell viability was assessed using trypan blue exclusion assay for all experiments.
For apoptosis detection, we used a FITC Annexin V Apoptosis Detection Kit I (BD Biosciences, San Jose, CA, EUA) and the analysis were performed according to the manufacturer’s instructions. Briefly, the cells treated were collected after the indicated time, washed twice with cold saline and resuspended in 300 μL binding buffer. Then, it was added 5 μL of Annexin V-FITC staining buffer and 5 μL of propidium iodide. The mixture was incubated in the dark at 37°C for 15 min. Cell fluorescence was measured by flow cytometry as described above.
In a new set of experiments, the cells were pre-treated for 1 h with 5 mM NAC, then incubated with the complexes in the established concentration for 48 h. The cells were then trypsinized and the FITC Annexin V Apoptosis Detection assay and trypan blue exclusion assay were conducted as described above.

[10] = test system: caspase-3; assay: Caspase-3 activation assay (DEVD-pNA, colorimetric); settings: HCT116, DEVD-pNA, 48h; PL 10 μM
Experimental: as §3
A caspase-3 colorimetric assay kit (Sigma-Aldrich Co., Saint Louis, MO, USA) was used to investigate caspase-3 activation on complexes-treated HCT116 cells based on the cleavage of DEVD-pNA and the analysis was performed according to the manufacturer’s instructions. Briefly, cells were lysed by incubation with cell lysis buffer on ice for 10 min and then centrifuged. Enzyme reactions were carried out in a 96-well flat-bottom microplate. To each reaction mixture, 5 μL cell lysate was added. Absorbance at 405 nm was measured using the SpectraMax 190 Microplate Reader (Molecular Devices, Sunnyvale, CA, EUA). The results were expressed as specific activity (IU/mg protein) of caspase-3.

[11] = test system: SCC-4 (human oral squamous cell carcinoma); assay: Cytotoxic activity, alamar blue assay, SCC-4; type: cell-based; settings: for more potent than metal-free piplartine: SCC4, IC50 72h
Source text: as §1, §2

[12] = test system: HCT116 (human colon carcinoma); assay: Cytotoxic activity, alamar blue assay, HCT116; type: cell-based
Source text: as §1, §2

[13] = test system: HepG2 (human hepatocellular carcinoma); assay: Cytotoxic activity, alamar blue assay, HepG2; type: cell-based; settings: for more potent than metal-free piplartine: HepG2, IC50 72h
Source text: as §1, §2

[14] = test system: K-562 (human chronic myelogenous leukemia); assay: Cytotoxic activity, alamar blue assay, K-562; type: cell-based; settings: for more potent than metal-free piplartine: K562, IC50 72h
Source text: as §1, §2

[15] = test system: HSC-3 (human oral squamous cell carcinoma); assay: Cytotoxic activity, alamar blue assay, HSC-3; type: cell-based; settings: for more potent than metal-free piplartine: HSC3, IC50 72h
Source text: as §1, §2

[16] = test system: HCT116 cells; assay: Measurement of the mitochondrial transmembrane potential (rhodamine 123); settings: HCT116, rhodamine 123, 24h; PL 10 μM
Experimental: as §3
Mitochondrial transmembrane potential was determined by the retention of the dye rhodamine 123 [59]. Cells were incubated with rhodamine 123 (5 μg/mL, Sigma-Aldrich Co., Saint Louis, MO, USA) at 37 °C for 15 min in the dark and washed with saline. The cells were then incubated again in saline at 37 °C for 30 min in the dark and cell fluorescence was determined by flow cytometry as described above.

[17] = test system: HCT116 cells; settings: trypan blue
Experimental: In all experiments, 2 mL of a HCT116 cell solution (7 x 10^4 cells/mL) was inserted in 24-well plates and incubated overnight to allow the cells to adhere to the plate surface. […] The negative control was treated with the vehicle (0.1% of a solution containing 70% sorbitol, 25% tween 80 and 5% water) used for diluting the compounds tested. […] Cell viability was assessed using trypan blue exclusion assay for all experiments.

[18] = HCT116, 1 μM, 24h, mean ± S.E.M.
[19] = HCT116, 1 μM, 48h, mean ± S.E.M.
[20] = HCT116, 10 μM, 24h, mean ± S.E.M.
[21] = HCT116, 10 μM, 48h, mean ± S.E.M.
[22] = BAD KO SV40 MEF, 72 h incubation, alamar blue, read-out: IC50

COc1cccc2c1C(=O)c1c(O)c3c(c(O)c1C2=O)C[C@@](O)(C(=O)CO)C[C@@H]3O[C@H]1C[C@H](N)[C@H](O)[C@H](C)O1 [Doxorubicin]
IC50 ([1]; Mus musculus, Fibroblast, BAD KO SV40 MEF, 72 h incubation, alamar blue, read-out: IC50): 0.41 µM
IC50 ([2]; MRC5, MRC-5 non-cancer cells, 72h of incubation, alamar blue, with 95% confidence interval, read-out: IC50): 1.3 µM
DNA content (%) G0/G1 [3, 18]: 22.1 ± 2.4%
DNA content (%) G2/M [3, 18]: 59.0 ± 2.8 %
DNA content (%) Sub-G0/G1 [3, 18]: 5.2 ± 1.4%
DNA content (%) G0/G1 [3, 19]: 15.8 ± 2.0 %
DNA content (%) G2/M [3, 19]: 49.0 ± 5.9 %
DNA content (%) Sub-G0/G1 [3, 19]: 21.8 ± 5.4 %
IC50 ([4]; Homo sapiens, SCC-9, 72h of incubation, alamar blue, with 95% confidence interval): 2.6 µM
IC50 ([5]; PBMC non-cancer cells, 72h of incubation, alamar blue, with 95% confidence interval, read-out: IC50): 5.4 µM
DNA intercalation (decrease of ethidium bromide fluorescence) [6]: significantly reduced fluorescence

COc1cc(/C=C/C(=O)N2CCC=CC2=O)cc(OC)c1OC [Piplartine]
intracellular ROS levels [7]: induced increasing oxidative stress
IC50 ([1]; Mus musculus, Fibroblast, 72 h): 4 µM
Selectivity index (SI) ([8]; SI = IC50[MRC-5]/IC50[HL-60]): 1.3
Selectivity index (SI) ([8]; SI = IC50[PBMC]/IC50[HL-60]): 2.6
early and late apoptosis (annexin-V/PI) [9]: induced increasing in the early and late apoptosis
IC50 ([2]; MRC5, 72 h): 17.3 µM
DNA content (%) G0/G1 [3, 20]: 22.7 ± 0.6%
DNA content (%) G2/M [3, 20]: 21.5 ± 2.9%
DNA content (%) S [3, 20]: 21.4 ± 2.3%
DNA content (%) Sub-G0/G1 [3, 20]: 20.3%
DNA content (%) Sub-G0/G1 ([3]; HCT116, 10 μM, 24h, mean ± S.E.M., listed as PL): 20.3 ± 1.8 %
DNA content (%) G0/G1 [3, 21]: 27.0 ± 2.9 %
DNA content (%) G2/M [3, 21]: 21.9 ± 0.9%
DNA content (%) S [3, 21]: 16.4 ± 2.2%
DNA content (%) Sub-G0/G1 [3, 21]: 33.9%
DNA content (%) Sub-G0/G1 ([3]; HCT116, 10 μM, 48h, mean ± S.E.M., listed as PL): 33.9 ± 5.8 %
activation of caspase-3 [10]: activation of caspase-3
Selectivity index (SI) ([11]; SI = IC50[MRC-5]/IC50[SCC-4]): 1.1
Selectivity index (SI) ([11]; SI = IC50[PBMC]/IC50[SCC-4]): 2.2
Selectivity index (SI) ([12]; SI = IC50[MRC-5]/IC50[HCT116]): 2.7
Selectivity index (SI) ([12]; SI = IC50[PBMC]/IC50[HCT116]): 5.3
IC50 ([13]; Homo sapiens, HepG2, 72 h): 6.3 µM
Selectivity index (SI) ([13]; SI = IC50[MRC-5]/IC50[HepG2]): 2.7
Selectivity index (SI) ([13]; SI = IC50[PBMC]/IC50[HepG2]): 5.4
IC50 ([14]; Homo sapiens, K562, 72 h): 18.6 µM
Selectivity index (SI) ([14]; SI = IC50[MRC-5]/IC50[K-562]): 0.9
Selectivity index (SI) ([14]; SI = IC50[PBMC]/IC50[K-562]): 1.8
Selectivity index (SI) ([4]; SI = IC50[MRC-5]/IC50[SCC-9]): 1.0
Selectivity index (SI) ([4]; SI = IC50[PBMC]/IC50[SCC-9]): 2.1
IC50 ([5]; PBMC, 72 h): 34.2 µM
Selectivity index (SI) ([15]; SI = IC50[MRC-5]/IC50[HSC-3]): 2.3
Selectivity index (SI) ([15]; SI = IC50[PBMC]/IC50[HSC-3]): 4.6
mitochondrial depolarization [16]: Mitochondrial depolarization

[Ru(piplartine)(dppb)(bipy)](PF6)2 [Complex 2]
IC50 [1, 22]: 4 µM
DNA content (%) S [3]: 18.7 ± 1.8% and 15.6 ± 1.8% and 21.2 ± 2.6% and 18.0 ± 1.3%
reduced the number of viable cells ([17]; HCT116, 2.5 μM, 24 h): 35.5%
reduced the number of viable cells ([17]; HCT116, 2.5 μM, 48 h): 55.5%
reduced the number of viable cells ([17]; HCT116, 5 μM, 24 h): 45.8%
reduced the number of viable cells ([17]; HCT116, 5 μM, 48 h): 66.9%
more potent than metal-free piplartine [11]: 3 fold
more potent than metal-free piplartine [13]: 3 fold
more potent than metal-free piplartine [14]: 3 fold
more potent than metal-free piplartine [4]: 2 fold
more potent than metal-free piplartine [15]: 6 fold

[Ru(piplartine)(dppf)(bipy)](PF6)2 [Complex 1]
IC50 [1, 22]: 3.2 µM
more potent than metal-free piplartine ([8]; HL-60, IC50 72h): 4 fold
Selectivity index (SI) ([8]; SI = IC50[MRC-5]/IC50[HL-60]): 1.0
Selectivity index (SI) ([8]; SI = IC50[PBMC]/IC50[HL-60]): 0.5
DNA content (%) G0/G1 [3]: 28.6 ± 5.9% and 39.4 ± 1.8% and 30.0 ± 5.8 % and 42.5 ± 1.7%
DNA content (%) S [3]: 11.5 ± 2.5% and 20.1 ± 1.4% and 13.5 ± 1.5% and 21.9 ± 2.5%
reduced the number of viable cells ([17]; HCT116, 1.25 μM, 24 h): 40.2%
reduced the number of viable cells ([17]; HCT116, 1.25 μM, 48 h): 61.5%
reduced the number of viable cells ([17]; HCT116, 2.5 μM, 24 h): 65.4%
reduced the number of viable cells ([17]; HCT116, 2.5 μM, 48 h): 77.1%
more potent than metal-free piplartine [11]: 5 fold
Selectivity index (SI) ([11]; SI = IC50[MRC-5]/IC50[SCC-4]): 1.1
Selectivity index (SI) ([11]; SI = IC50[PBMC]/IC50[SCC-4]): 0.6
more potent than metal-free piplartine ([12]; HCT116, IC50 72h): 4 fold
Selectivity index (SI) ([12]; SI = IC50[MRC-5]/IC50[HCT116]): 2.0
Selectivity index (SI) ([12]; SI = IC50[PBMC]/IC50[HCT116]): 1.1
more potent than metal-free piplartine [13]: 4 fold
Selectivity index (SI) ([13]; SI = IC50[MRC-5]/IC50[HepG2]): 2.0
Selectivity index (SI) ([13]; SI = IC50[PBMC]/IC50[HepG2]): 1.1
more potent than metal-free piplartine [14]: 5 fold
Selectivity index (SI) ([14]; SI = IC50[MRC-5]/IC50[K-562]): 1.0
Selectivity index (SI) ([14]; SI = IC50[PBMC]/IC50[K-562]): 0.5
more potent than metal-free piplartine [4]: 4 fold
Selectivity index (SI) ([4]; SI = IC50[MRC-5]/IC50[SCC-9]): 0.8
Selectivity index (SI) ([4]; SI = IC50[PBMC]/IC50[SCC-9]): 0.4
more potent than metal-free piplartine [15]: 12 fold
Selectivity index (SI) ([15]; SI = IC50[MRC-5]/IC50[HSC-3]): 5.7
Selectivity index (SI) ([15]; SI = IC50[PBMC]/IC50[HSC-3]): 3.0
